The record followed here is US7928099B2, “Pyrimido [4,5-D] azepine derivatives as 5-HT2c agonists” (Pfizer Inc, priority 2007, dated 2011).

Counter-ions that a name gives are not always drawn.

In experiment [1] the target is T1, human recombinant 5-HT2c receptor (Homo sapiens, UniProt P28335).
T1 construct: expressed in transfected cells; host or cells: CHO K1 (Chinese hamster ovary), stably transfected
T1 sequence (P28335 33-458): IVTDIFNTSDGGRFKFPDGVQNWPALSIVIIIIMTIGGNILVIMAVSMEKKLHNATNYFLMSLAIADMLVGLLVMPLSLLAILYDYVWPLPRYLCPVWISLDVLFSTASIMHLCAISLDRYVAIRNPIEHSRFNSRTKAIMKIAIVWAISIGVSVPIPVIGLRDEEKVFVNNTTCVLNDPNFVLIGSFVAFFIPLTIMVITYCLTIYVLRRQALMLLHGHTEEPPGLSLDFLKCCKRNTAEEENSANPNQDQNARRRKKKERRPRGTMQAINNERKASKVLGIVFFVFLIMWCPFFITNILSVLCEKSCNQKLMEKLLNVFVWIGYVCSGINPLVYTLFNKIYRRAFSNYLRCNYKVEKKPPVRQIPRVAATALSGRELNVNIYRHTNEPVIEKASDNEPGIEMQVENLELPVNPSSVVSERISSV
In words: 3H-meselurgine radioligand binding SPA, membranes from Swiss 3T3 cells (Method 2). Conditions: 3H-meselurgine displacement, Cheng-Prusoff; Swiss 3T3 membranes; read-out: Binding Affinity Ki. The method, then: (§1) The compounds of the invention were evaluated for biological activity by measuring the agonist affinity (EC50) and efficacy (Emax) at the human recombinant 5-HT2c receptor expressed in CHO K1 cells, using a fluorescent based Ca^2+ mobilisation assay format compatible with FLIPR technology (Method 1). Additionally, the binding activity of a compound was determined by measuring its affinity for the human recombinant 5-HT2c receptor membranes from Swiss 3T3 cells (Method 2).
The compounds were tested for biological activity by their ability to inhibit binding of the radioligand ^3H-meselurgine at the human recombinant 5-HT2C receptor expressed in the Swiss 3T3 cells using a scintillation proximity assay (SPA) technology.
Swiss 3T3 stably transfected with the 5-HT2C receptor were cultured under standard cell culture techniques. Specifically, cells were grown in 50 mL growth medium (Dulbecco's Modified Eagle's Medium (DMEM) culture media supplemented with 10% dialysed foetal calf serum (FCS), 2 mM penicillin/streptomycin and 20 μg/mL geneticin) in 225 cm^2 flasks at 37° C. and 5% CO2. Cells were grown to 60-80% confluency, harvested using trypsin-EDTA and pelleted by centrifugation for long-term storage at −80° C.
Cell pellets were thawed on ice and resuspended in 3 mL of membrane preparation buffer (see Media and Buffers for composition) per 1 mL of packed cell. The suspension was homogenised on ice for several 5 s intervals using a hand-held homogeniser. The homogenate was then centrifuged at 1,000 rpm for 5 min at 4° C.
The supernatants were then collected and retained. Initial cell & nuclei pellets (P1) were subsequently rehomogenised and centrifuged using the conditions cited above, and the supernatants collected and pooled with those retained from the first spin.
The pooled supernatants were centrifuged at 19,500 rpm for 45 min at 4° C., and the supernatants discarded. The pellets (P2) were then resuspended in 3 mL of membrane preparation buffer per 1 mL of the original packed cell volume. Protein concentrations were subsequently measured and the membrane suspension was finally frozen in aliquots of set volume and stored at −80° C. prior to use in assays.
For each batch of membrane used, optimal concentrations of Polylysine YSi SPA beads and membrane were determined. The assay free radioligand concentration was expressed as a percentage of the total free radioligand concentration to give an estimate of the radioligand depletion.
The affinity of ^3H-meselurgine for the human recombinant 5-HT2c receptor was determined for each membrane batch at the selected protein and bead concentrations. […] The mean KD for ^3H-meselurgine at a batch of membranes was determined from data from a minimum of three separate assays.
The required amount of membrane, was thawed on ice and added to a pre-determined volume of bead suspension in 50 mM HEPES buffer, pH 7.4. The beads were then pre-coupled by incubating the predetermined protein quantity per mg of bead on a roller 4° C. for 1 h. Subsequently, the bead/membrane complex was spun down at 1000 rpm for 5 min. The resulting pellet was resuspended in assay buffer at the specific concentration required for the final assay.
An aliquot of [^3H]-meselurgine stock was diluted in binding assay buffer to give a pre-determined final assay concentration less than the equilibrium dissociation constant (KD) value.
All test compounds were prepared at a concentration of 4 mM in 100% dimethyl sulphoxide (DMSO) from dry samples.
The same volume of assay buffer was added to specific wells of the plate to enable subsequent measurement of total radioligand binding. Furthermore, 5 μL of Mianserin at 25 μM (2.5 μM final assay concentration was subsequently added to pre-determined wells to determine non-specific binding (NSB).

Experiment [2] has as its target T1, human recombinant 5-HT2c receptor. Briefly: FLIPR fluorescent Ca2+ mobilisation agonist assay in CHO K1 cells (Method 1). In kind it is cell-based. The settings on record: for Emax: CHO-K1, efficacy, percentage of mean maximal response to 10 μM 5-HT; for EC50: agonist affinity, FLIPR. On the procedure:
as §1
The agonist affinity of the compounds were tested by measuring their ability to induce a fluorescent based Ca^2+ mobilization signal in a FLIPR assay using CHO K1 cells expressing recombinant human 5-HT2C receptor. Both agonist affinity (EC50) and efficacy (Emax) were determined.
Chinese hamster ovary cells (CHO K1) stably transfected with the 5-HT2c receptor were cultured under standard cell culture techniques. Specifically, cells were grown at 37° C. and 5% CO2 in Dulbecco's Modified Eagle's Medium (DMEM) culture media supplemented with 10% dialysed foetal calf serum (FCS), 1% non-essential amino acids, 1 mM sodium pyruvate, 800 μg/mL geneticin and 50 μg/ml zeocin. Cells were harvested for passaging and storage using trypsin-EDTA, centrifugation and resuspension in culture medium. Cells were grown to 60-80% confluency, harvested and adjusted to 15-20×10^6 cells/ml/vial in medium/10% DMSO and stored long-term at −80° C.
Cells were seeded into black-walled clear-bottomed 384 well plates 24 h before use. Frozen cells were defrosted in a 37° C. water bath and immediately transferred into 1 mL/vial 37° C. culture medium, diluted to 10 ml and DMSO removed by centrifugation. The cells were resuspended in 15 ml/vial of cell culture medium, counted and adjusted to give 500,000 cells/mL (10,000 cells/well). […] of cell suspension was added to the 384 well plates which were then incubated overnight at 37° C.
The maximum agonist response was determined with 5-HT at a final assay concentration of 10 μM in the diluent above. The minimum response was determined with Dulbeccos PBS (+CaCl2, +MgCl2) with 0.9% DMSO and 0.05% pluronic F-127. Test compounds, maximum and minimum controls were added to a 384 well polypropylene plate.
The FLIPR calcium assay reagent was diluted with assay buffer (Hank's Balanced Salt Solution (HBSS))/20 mM HEPES and 2.5 mM probenecid (diluted with 1M Sodium hydroxide and DPBS (+CaCl2, +MgCl2)).
20 μl/well FLIPR calcium assay reagent was added to the cell plates, which were incubated for 1 h at 37° C. Cell plates and compound plates were then transferred onto the FLIPR. The assay was run using the appropriate FLIPR program, which initiates the reaction by transferring 15 μL compound into the corresponding, well of the cell plate.
The statistical parameter exported from each well was the max peak height of the response.
On the technique in general: Calcium flux is commonly read through the fluorescence of an indicator in the cells.

Broadly, the Ki is the equilibrium dissociation constant of an inhibitor or competing ligand from its target. For orientation: Emax means the greatest response seen or fitted, relative to the assay's reference. For orientation: EC50 means the concentration that produces a half-maximal response. As to `CN(C)c1nc(N(C)Cc2ccccc2)nc2c1CCNCC2` [Example 14, N-2-benzyl-N-2,N-4,N-4-trimethyl-6,7,8,9-tetrahydro-5H-pyrimido[4,5,d]azepin-2-amine], the Ki in experiment [1] worked out at 144 nM. For the same compound, in experiment [2], the Emax turned out to be 50.8% and the EC50 was determined as 279 nM.

Regarding `c1ccc(Cc2nc3c(c(C4CC4)n2)CCNCC3)cc1` [Example 53, 2-Benzyl-4-cyclopropyl-6,7,8,9-tetrahydro-5H-pyrimido[4,5-d]azepine], the Ki in experiment [1] was determined as 105 nM. Also, in experiment [2], the Emax was 49.6% and the EC50 was determined as 293 nM.

Regarding `N#CC1CCCN(c2nc(Cc3ccccc3)nc3c2CCNCC3)C1` (stereo not drawn) [Example 40, 1-(2-benzyl-6,7,8,9-tetrahydro-5H-pyrimido[4,5-d]azepin-4-yl)piperidine-3-carbonitrile hydrochloride], the Ki in experiment [1] turned out to be 413 nM. Besides, in experiment [2], the Emax amounted to 40.6% and the EC50 came to 309 nM.

As for `COc1nc(C(F)(F)c2ccccc2)nc2c1CCNCC2` [Example 72, 2-(Difluoro-phenyl-methyl)-4-methoxy-6,7,8,9-tetrahydro-5H-pyrimido[4,5-d]azepine], in experiment [1], the Ki turned out to be 77.7 nM. In addition, in experiment [2], the Emax was 41.1% and the EC50 turned out to be 80 nM.

In the case of `c1ccc(Cc2nc3c(c(N4CCCCC4)n2)CCNCC3)cc1` [Example 29, 2-benzyl-4-piperidin-1-yl-6,7,8,9-tetrahydro-5H-pyrimido[4,5-d]azepine hydrochloride], the Ki in experiment [1] turned out to be 177 nM. Further, in experiment [2], the Emax came to 37.7% and the EC50 was found to be 962 nM.

Consider `FC(F)(F)c1cccc(Cc2ncc3c(n2)CCNCC3)c1` [Example 63, 2-[3-(Trifluoromethyl)benzyl]-6,7,8,9-tetrahydro-5H-pyrimido[4,5-d]azepine], for which the Ki in experiment [1] was determined as 308 nM. For the same compound, in experiment [2], the Emax stood at 44.1% and the EC50 came to 298 nM.

For `CCCCc1nc(Cc2ccccc2)nc2c1CCNCC2` [Example 69, 2-Benzyl-4-butyl-6,7,8,9-tetrahydro-5H-pyrimido[4,5-d]azepine], the Ki in experiment [1] was determined as 153 nM. In experiment [2], the Emax came to 77.1% and the EC50 turned out to be 274 nM.

For the compound `c1ccc(Cc2nc3c(c(NCC4CCCO4)n2)CCNCC3)cc1` (stereo not drawn) [Example 19, 2-benzyl-N-(tetrahydrofuran-2-ylmethyl)-6,7,8,9-tetrahydro-5H-pyrimidol[4,5-d]azepin-4-amine hydrochloride], in experiment [1], the Ki turned out to be 52.4 nM. In experiment [2], the Emax is 36.3% and the EC50 stood at 344 nM.

With `OC1CCCN(c2nc(Cc3ccccc3)nc3c2CCNCC3)C1` (stereo not drawn) [Example 18, 1-(2-benzyl-6,7,8,9-tetrahydro-5H-pyrimido[4,5-d]azepin-4-yl)piperidin-3-ol hydrochloride], in experiment [1], the Ki was 243 nM. In addition, in experiment [2], the Emax worked out at 51.3% and the EC50 was determined as 558 nM.

As for `OC(c1ccccc1)c1ncc2c(n1)CCNCC2` (single isomer, unassigned; stereoisomer 1) [Example 70, Phenyl-(6,7,8,9-tetrahydro-5H-pyrimido[4,5-d]azepin-2-yl)-methanol dihydrochloride (Stereoisomer 1)], the Ki in experiment [1] turned out to be 978 nM. In experiment [2], the Emax was 76% and the EC50 stood at 643 nM.

Turning to `CCc1nc(Cc2ccccc2)nc2c1CCNCC2` [Example 52, 2-Benzyl-4-ethyl-6,7,8,9-tetrahydro-5H-pyrimido[4,5-d]azepine], the Ki in experiment [1] was 142 nM. Moreover, in experiment [2], the Emax was determined as 71.6% and the EC50 came to 314 nM.

As to `FC1CCN(c2nc(Cc3ccccc3)nc3c2CCNCC3)C1` (stereo not drawn) [Example 43, 2-benzyl-4-(3-fluoropyrrolidin-1-yl)-6,7,8,9-tetrahydro-5H-pyrimido[4,5-d]azepine hydrochloride], in experiment [1], the Ki was found to be 61 nM. Besides, in experiment [2], the Emax is 52.6% and the EC50 was determined as 190 nM.

On to `CC(CO)Nc1nc(Cc2ccccc2)nc2c1CCNCC2` (stereo not drawn) [Example 33, 2-[(2-benzyl-6,7,8,9-tetrahydro-5H-pyrimido[4,5-d]azepin-4-yl)amino]propan-1-ol hydrochloride], for which the Ki in experiment [1] turned out to be 125 nM. Besides, in experiment [2], the Emax is 58.5% and the EC50 came out at 424 nM.

As to `Fc1ccc(Cc2ncc3c(n2)CCNCC3)cc1` [Example 62, 2-(4-Fluorobenzyl)-6,7,8,9-tetrahydro-5H-pyrimido[4,5-d]azepine], the Ki in experiment [1] stood at 471 nM. In experiment [2], the Emax came out at 59.6% and the EC50 was found to be 309 nM.

Take `c1ccc(C2(c3nc4c(c(N5CCOCC5)n3)CCNCC4)CC2)cc1` [Example 13, 4-Morpholin-4-yl-2-(1-phenylcyclopropyl)-6,7,8,9-tetrahydro-5H-pyrimido[4,5-d]azepine]: the Ki in experiment [1] stood at 2300 nM. Besides, in experiment [2], the Emax stood at 64.4% and the EC50 is 499 nM.

Take `CO[C@H]1CCN(c2nc(Cc3ccccc3)nc3c2CCNCC3)C1` [Example 26, 2-benzyl-4-[(3S)-3-methoxypyrrolidin-1-yl]-6,7,8,9-tetrahydro-5H-pyrimido[4,5-d]azepine hydrochloride]: the Ki in experiment [1] was 229 nM. Besides, in experiment [2], the Emax turned out to be 60.9% and the concentration giving a half-maximal response (EC50) is 417 nM.

Turning to `CC(C)(c1ccccc1)c1nc2c(c(N3CCOCC3)n1)CCNCC2` [Example 11, 2-(1-Methyl-1-phenylethyl)-4-morpholin-4-yl-6,7,8,9-tetrahydro-5H-pyrimido[4,5-d]azepine], the Ki in experiment [1] turned out to be 73.5 nM. Besides, in experiment [2], the Emax was 75.2% and the EC50 came to 884 nM.
